Laboratory results reported in ChEMBL document CHEMBL1153150, “Synthesis and structure-activity relationship of novel lactam-fused chroman derivatives having dual affinity at the 5-HT(1A) receptor and the serotonin transporter” (Bioorg Med Chem Lett, 2010).

Tests used:
[1] = molecular target: T1, 5-hydroxytryptamine receptor 1A (Homo sapiens, UniProt P08908); experiment: Agonist activity at human 5HT1A receptor expressed in CHO cells assessed as inhibition of forskolin-induced adenylate cyclase activity; type: functional, cell-based
T1 sequence (P08908 whole entry): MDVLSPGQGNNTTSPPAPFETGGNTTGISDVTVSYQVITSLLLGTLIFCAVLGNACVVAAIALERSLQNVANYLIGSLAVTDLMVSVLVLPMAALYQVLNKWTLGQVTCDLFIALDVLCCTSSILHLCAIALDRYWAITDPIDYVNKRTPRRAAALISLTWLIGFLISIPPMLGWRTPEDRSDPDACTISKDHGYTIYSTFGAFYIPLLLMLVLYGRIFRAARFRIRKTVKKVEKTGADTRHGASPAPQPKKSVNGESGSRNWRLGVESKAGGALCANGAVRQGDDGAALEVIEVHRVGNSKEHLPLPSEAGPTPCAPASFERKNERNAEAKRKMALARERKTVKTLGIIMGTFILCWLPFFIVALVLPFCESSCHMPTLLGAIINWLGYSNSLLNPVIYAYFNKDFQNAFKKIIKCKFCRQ

[2] = molecular target: T2, 5-hydroxytryptamine receptor 1A (Homo sapiens) (UniProt P08908); experiment: Agonist activity at human 5HT1A receptor expressed in CHO cells by [35S]GTPgammaS binding assay; type: functional, cell-based
T2 sequence (whole entry): T1 sequence (P08908 whole entry)

[3] = molecular target: T1, 5-hydroxytryptamine receptor 1A; experiment: Displacement of [3H][…] from human 5HT1A receptor expressed in CHO cells; type: cell-based
[4] = molecular target: Sodium-dependent serotonin transporter (Homo sapiens, UniProt P31645); experiment: Displacement of labeled paroxetine from 5-HT transporter
Sequence of Sodium-dependent serotonin transporter (P31645 whole entry): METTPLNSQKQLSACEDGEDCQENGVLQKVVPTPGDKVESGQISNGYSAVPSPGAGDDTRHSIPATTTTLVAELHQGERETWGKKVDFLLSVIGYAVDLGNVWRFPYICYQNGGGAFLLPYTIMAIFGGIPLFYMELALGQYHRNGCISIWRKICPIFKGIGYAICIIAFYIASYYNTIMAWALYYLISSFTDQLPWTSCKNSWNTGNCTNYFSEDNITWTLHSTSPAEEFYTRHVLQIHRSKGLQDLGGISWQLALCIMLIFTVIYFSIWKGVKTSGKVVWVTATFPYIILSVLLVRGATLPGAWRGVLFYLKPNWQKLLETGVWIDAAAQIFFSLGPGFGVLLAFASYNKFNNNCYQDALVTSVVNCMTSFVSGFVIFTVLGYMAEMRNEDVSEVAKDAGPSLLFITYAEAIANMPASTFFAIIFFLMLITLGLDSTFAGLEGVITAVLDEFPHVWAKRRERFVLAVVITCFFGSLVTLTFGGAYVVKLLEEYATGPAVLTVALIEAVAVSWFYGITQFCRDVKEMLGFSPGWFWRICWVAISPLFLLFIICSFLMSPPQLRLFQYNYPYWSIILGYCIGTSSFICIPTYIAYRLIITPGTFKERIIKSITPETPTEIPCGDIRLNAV

CCN(CCCc1c[nH]c2ccc(F)cc12)C1COc2ccc3c(c2C1)C(=O)NCC3 (racemic)
EC50 [1]: 9 nM | Emax [2]: 97% | Ki [3]: 6 nM | Ki [4]: 30 nM

N#Cc1ccc2[nH]cc(CCCCN(CC3CC3)C3COc4ccc5c(c4C3)C(=O)NC5)c2c1 (racemic) [listing 1 of 2 here]
IC50 [1]: 63 nM | Ki [3]: 4 nM | Ki [4]: 25 nM

O=C1NCc2ccc3c(c21)CC(N(CCCc1c[nH]c2ccc(F)cc12)CC1CCCCC1)CO3 (racemic)
Ki [4]: 1240 nM

CC(C)N(CCCc1c[nH]c2ccc(F)cc12)C1COc2ccc3c(c2C1)C(=O)NCC3 (racemic)
EC50 [1]: 252 nM | Emax [2]: 94% | Ki [3]: 129 nM | Ki [4]: 8 nM

O=C1NCc2ccc3c(c21)CC(NCCCCc1c[nH]c2ccc(F)cc12)CO3 (racemic)
EC50 [1]: 284 nM | Emax [2]: 96% | Ki [3]: 22 nM | Ki [4]: 20 nM

CN(CCCc1c[nH]c2ccc(F)cc12)C1COc2ccc3c(c2C1)C(=O)NCC3 (racemic)
EC50 [1]: 26 nM | Emax [2]: 99% | Ki [3]: 23 nM | Ki [4]: 17 nM

O=C1NCCc2ccc3c(c21)CC(N(CCCc1c[nH]c2ccc(F)cc12)CCC(F)(F)F)CO3 (racemic)
Ki [3]: 966 nM | Ki [4]: 340 nM

O=C1NCCc2ccc3c(c21)CC(N(CCCc1c[nH]c2ccc(F)cc12)C(=O)c1ccccc1)CO3 (racemic)
Ki [3]: 1220 nM | Ki [4]: 671 nM

O=C1NCc2ccc3c(c21)CC(N(CCCc1c[nH]c2ccc(F)cc12)CC1CC1)CO3 (racemic) [listing 1 of 2 here]
IC50 [1]: 223 nM | Ki [3]: 6 nM | Ki [4]: 15 nM

CC(C)CN(CCCc1c[nH]c2ccc(F)cc12)C1COc2ccc3c(c2C1)C(=O)NC3 (racemic)
Ki [4]: 617 nM

O=C1NCCc2ccc3c(c21)CC(N(CCCc1c[nH]c2ccc(F)cc12)C1CCC1)CO3 (racemic)
EC50 [1]: 54 nM | Emax [2]: 77% | Ki [3]: 95 nM | Ki [4]: 28 nM

O=C1NCc2ccc3c(c21)CC(N(CCCc1c[nH]c2ccc(F)cc12)CC1CC1)CO3 (racemic) [listing 2 of 2 here]
Emax [2]: 0%

CCCN(CCCc1c[nH]c2ccc(F)cc12)C1COc2ccc3c(c2C1)C(=O)NCC3 (racemic)
EC50 [1]: 34 nM | Emax [2]: 100% | Ki [3]: 13 nM | Ki [4]: 61 nM

N#Cc1ccc2[nH]cc(CCCCN(CC3CC3)C3COc4ccc5c(c4C3)C(=O)NC5)c2c1 (single isomer, unassigned; (+)) [listing 1 of 2 here]
EC50 [1]: 19 nM | Ki [3]: 31 nM | Ki [4]: 12 nM

O=C1NCc2ccc3c(c21)CC(N(CCCc1c[nH]c2ccc(F)cc12)CC1CC1)CO3 (stereo in doubt; (+)-46) [listing 1 of 2 here]
EC50 [1]: 24 nM | Ki [3]: 3 nM | Ki [4]: 5 nM

O=C1NCCc2ccc3c(c21)CC(N(CCCc1c[nH]c2ccc(F)cc12)CC1CC1)CO3 (racemic)
EC50 [1]: 36 nM | Emax [2]: 91% | Ki [3]: 19 nM | Ki [4]: 26 nM

O=C1NCc2ccc3c(c21)CC(NCCCc1c[nH]c2ccc(F)cc12)CO3 (racemic)
EC50 [1]: 62 nM | Emax [2]: 100% | Ki [3]: 24 nM | Ki [4]: 8 nM

O=C1NCc2ccc3c(c21)CC(N(CCCc1c[nH]c2ccc(F)cc12)CC1CC1)CO3 (single isomer, unassigned; (-)) [listing 1 of 2 here]
IC50 [1]: 320 nM | Ki [3]: 8 nM | Ki [4]: 6 nM

O=C1NCCc2ccc3c(c21)CC(NCCCc1c[nH]c2ccc(F)cc12)CO3 (racemic)
EC50 [1]: 25 nM | Emax [2]: 87% | Ki [3]: 44 nM | Ki [4]: 10 nM

N#Cc1ccc2[nH]cc(CCCCN(CC3CC3)C3COc4ccc5c(c4C3)C(=O)NC5)c2c1 (single isomer, unassigned; (-)) [listing 1 of 2 here]
Emax [2]: 0%

O=C1NCc2ccc3c(c21)CC(N(CCCc1c[nH]c2ccc(F)cc12)CC1CC1)CO3 (single isomer, unassigned; (-)) [listing 2 of 2 here]
Emax [2]: 0%

O=C1NCc2ccc3c(c21)CC(N(CCCCc1c[nH]c2ccc(F)cc12)CC1CC1)CO3 (racemic)
EC50 [1]: 49 nM | Emax [2]: 87% | Ki [3]: 19 nM | Ki [4]: 139 nM

O=C1NCc2ccc3c(c21)CC(N(CCCc1c[nH]c2ccc(F)cc12)C1CCC1)CO3 (racemic)
EC50 [1]: 350 nM | Ki [3]: 101 nM | Ki [4]: 63 nM

CN(CCCc1c[nH]c2ccc(F)cc12)C1COc2ccc3c(c2C1)C(=O)NC3 (racemic)
EC50 [1]: 75 nM | Emax [2]: 80% | Ki [3]: 22 nM | Ki [4]: 9 nM

CCN(CCCc1c[nH]c2ccc(F)cc12)C1COc2ccc3c(c2C1)C(=O)NC3 (racemic)
EC50 [1]: 28 nM | Emax [2]: 78% | Ki [3]: 2 nM | Ki [4]: 8 nM

O=C1NCCc2cc(F)c3c(c21)CC(NCCCc1c[nH]c2ccc(F)cc12)CO3 (racemic)
EC50 [1]: 4 nM | Emax [2]: 98% | Ki [3]: 6 nM | Ki [4]: 27 nM

N#Cc1ccc2[nH]cc(CCCCN(CC3CC3)C3COc4ccc5c(c4C3)C(=O)NC5)c2c1 (single isomer, unassigned; (-)) [listing 2 of 2 here]
IC50 [1]: 203 nM | Ki [3]: 10 nM | Ki [4]: 17 nM

O=C1NCc2ccc3c(c21)CC(N(CCCc1c[nH]c2ccc(F)cc12)CC1CC1)CO3 (stereo in doubt; (+)-46) [listing 2 of 2 here]
Emax [2]: 84%

N#Cc1ccc2[nH]cc(CCCCN(CC3CC3)C3COc4ccc5c(c4C3)C(=O)NC5)c2c1 (racemic) [listing 2 of 2 here]
Emax [2]: 0%

O=C1NCc2ccc3c(c21)CC(N(CCCc1c[nH]c2ccc(F)cc12)C(=O)c1ccccc1)CO3 (racemic)
EC50 [1]: 436 nM | Emax [2]: 96% | Ki [3]: 85 nM | Ki [4]: 31 nM

O=C1NCCc2cc(F)c3c(c21)CC(N(CCCc1c[nH]c2ccc(F)cc12)CC1CC1)CO3 (racemic)
EC50 [1]: 101 nM | Emax [2]: 62% | Ki [3]: 50 nM | Ki [4]: 112 nM

N#Cc1ccc2[nH]cc(CCCCN(CC3CC3)C3COc4ccc5c(c4C3)C(=O)NC5)c2c1 (single isomer, unassigned; (+)) [listing 2 of 2 here]
Emax [2]: 100%

CC(C)CN(CCCc1c[nH]c2ccc(F)cc12)C1COc2ccc3c(c2C1)C(=O)NCC3 (racemic)
Ki [3]: 927 nM | Ki [4]: 184 nM

CCN(CCCc1c[nH]c2ccc(F)cc12)C1COc2c(F)cc3c(c2C1)C(=O)NCC3 (racemic)
EC50 [1]: 10 nM | Emax [2]: 92% | Ki [3]: 4 nM | Ki [4]: 15 nM

N#Cc1ccc2[nH]cc(CCCNC3COc4ccc5c(c4C3)C(=O)NC5)c2c1 (racemic)
EC50 [1]: 22 nM | Emax [2]: 91% | Ki [3]: 36 nM | Ki [4]: 13 nM
